Measurements taken from ChEMBL document CHEMBL5316293, “Novel Small-Molecule PD-L1 Inhibitor Induces PD-L1 Internalization and Optimizes the Immune Microenvironment” (J Med Chem, 2023).
The source made the active and inactive calls. The rule behind the calls is not given here.

What was measured:
[1] = AUC (0 to infinity) in ICR mouse at 5 mg/kg, iv; format: ADME, organism-based; set-up: dose 5 mg/kg, route iv; settings: in vivo
[2] = Toxicity in ICR mouse assessed as reduction in spleen weight at 500 to 5000 mg/kg, po administered via gavage for 2 weeks; format: organism-based; settings: in vivo, 336 h, dose 500-5000 mg/kg
[3] = system: MC38-hPD-L1; test: (§1) Antitumor activity against humanized mouse MC38-hPD-L1 cells implanted in hPD-1 knockin C57BL/6 mouse assessed as reduction in tumor cell proliferation by measuring reduction in Ki67 expression at 10 to 25 mg/kg, ip administered for 12 days starting from day 7 post tumor implantation by immunohistochemistry analysis; format: functional, organism-based; settings: dose 10-25 mg/kg, time 12.0 day
[4] = Toxicity in hPD-1 knockin C57BL/6 mouse implanted with humanized mouse MC38-hPD-L1 cells assessed as reduction in body weight at 10 to 25 mg/kg, ip administered for 12 days starting from day 7 post tumor implantation and measured every 3 to 4 days; format: organism-based; settings: in vivo, 288 h, dose 10-25 mg/kg, time 12 day
[5] = system: MC38-hPD-L1; test: Antitumor activity against humanized mouse MC38-hPD-L1 cells implanted in hPD-1 knockin C57BL/6 mouse assessed as macrophage polarization into M1 phenotype at 25 mg/kg, ip administered for 12 days starting from day 7 post tumor implantation by flow cytometry analysis; format: functional, organism-based; settings: time 12.0 day
[6] = Toxicity in ICR mouse assessed as reduction in liver weight at 500 to 5000 mg/kg, po administered via gavage for 2 weeks; format: organism-based; settings: in vivo, 336 h, dose 500-5000 mg/kg
[7] = system: LLC-hPD-L1; test: Antitumor activity against humanized mouse LLC-hPD-L1 cells implanted in hPD-1 knockin C57BL/6 mouse assessed as reduction in MDSC cells at 10 to 25 mg/kg, ip administered for 12 days starting from day 7 post tumor implantation by flow cytometry analysis; format: functional, organism-based; settings: dose 10-25 mg/kg, time 12.0 day
[8] = Toxicity in ICR mouse assessed as reduction in lungs weight at 500 to 5000 mg/kg, po administered via gavage for 2 weeks; format: organism-based; settings: in vivo, 336 h, dose 500-5000 mg/kg
[9] = system: MC38-hPD-L1; test: Antitumor activity against humanized mouse MC38-hPD-L1 cells implanted in hPD-1 knockin C57BL/6 mouse assessed as increase in GzmB level at 10 to 25 mg/kg, ip administered for 12 days starting from day 7 post tumor implantation by flow cytometry analysis; format: functional, organism-based; settings: dose 10-25 mg/kg, time 12.0 day
[10] = system: MC38-hPD-L1; test: Antitumor activity against humanized mouse MC38-hPD-L1 cells implanted in BALB/c nude mouse assessed as reduction in tumor growth at 10 to 25 mg/kg, ip administered for 10 days starting from day 6 post tumor implantation and measured every 2 days; format: functional, organism-based; settings: dose 10-25 mg/kg, time 10.0 day
[11] = system: LLC-hPD-L1; test: Antitumor activity against humanized mouse LLC-hPD-L1 cells implanted in hPD-1 knockin C57BL/6 mouse assessed as reduction in M2 macrophages at 10 to 25 mg/kg, ip administered for 12 days starting from day 7 post tumor implantation by flow cytometry analysis; format: functional, organism-based; settings: dose 10-25 mg/kg, time 12.0 day
[12] = system: MC38-hPD-L1; test: as §1, with “increase” for “reduction”, “apoptosis” for “proliferation”, “cleaved caspase-3 level” for “Ki67 expression”; format: functional, organism-based; settings: dose 10-25 mg/kg, time 12.0 day
[13] = system: LLC-hPD-L1; test: Antitumor activity against humanized mouse LLC-hPD-L1 cells implanted in hPD-1 knockin C57BL/6 mouse assessed as increase in tumor cell apoptosis by measuring increase in cleaved caspase-3 level administered intraperitoneally for 12 days starting from day 7 post tumor implantation by immunohistochemistry analysis; format: functional, cell-based; settings: dose 10-25 mg/kg, route ip, time 12.0 day
[14] = system: LLC-hPD-L1; test: Antitumor activity against humanized mouse LLC-hPD-L1 cells implanted in hPD-1 knockin C57BL/6 mouse assessed as increase in GzmB level at 10 to 25 mg/kg, ip administered for 12 days starting from day 7 post tumor implantation by flow cytometry analysis; format: functional, organism-based; settings: dose 10-25 mg/kg, time 12.0 day
[15] = system: MC38-hPD-L1; test: Antitumor activity against humanized mouse MC38-hPD-L1 cells implanted in hPD-1 knockin C57BL/6 mouse assessed as tumor growth inhibition at 10 mg/kg, ip administered for 12 days starting from day 7 post tumor implantation and measured every 2 days relative to control; format: functional; settings: MC38-hPD-L1, 288 h, time 12 day, read-out: TGI
[16] = organism: Homo sapiens; test: Internalization of PD-L1 in cytoplasm of human RKO cells assessed as increase in PD-L1 concentration in cytoplasm at 1 micromol/L incubated for 6 hrs by fluorescence microscopy; format: functional, cell-based; settings: dose 1.0 µmol/L
[17] = system: MC38-hPD-L1; test: Antitumor activity against humanized mouse MC38-hPD-L1 cells implanted in hPD-1 knockin C57BL/6 mouse assessed as tumor growth inhibition at 25 mg/kg, ip administered for 12 days starting from day 7 post tumor implantation and measured every 2 days relative to control; format: functional; settings: MC38-hPD-L1, 288 h, time 12 day, read-out: TGI
[18] = system: LLC-hPD-L1; test: as §1, with “LLC-hPD-L1” for “MC38-hPD-L1”, “expression” for “expression at 10 to 25 mg/kg, ip”, “administered intraperitoneally” for “administered”; format: functional, cell-based; settings: dose 10-25 mg/kg, route ip, time 12.0 day
[19] = system: A549; test: Cytotoxicity against human A549 cells assessed as reduction in tumor proliferation at 10 to 20 uM incubated for 48 hrs by xCELLigence RTCA system analysis; format: functional, cell-based; settings: dose 10-20 µM
[20] = organism: Homo sapiens; test: Internalization of PD-L1 in cytoplasm of human RKO cells assessed as decrease in PD-L1 concentration in cell membrane at 1 micromol/L incubated for 6 hrs by fluorescence microscopy; format: functional, cell-based; settings: dose 1.0 µmol/L
[21] = system: LLC-hPD-L1; test: Antitumor activity against humanized mouse LLC-hPD-L1 cells implanted in hPD-1 knockin C57BL/6 mouse assessed as increase in M1 macrophages at 10 to 25 mg/kg, ip administered for 12 days starting from day 7 post tumor implantation by flow cytometry analysis; format: functional, organism-based; settings: dose 10-25 mg/kg, time 12.0 day
[22] = system: MC38-hPD-L1; test: Antitumor activity against humanized mouse MC38-hPD-L1 cells implanted in hPD-1 knockin C57BL/6 mouse assessed as reduction in MDSC cells at 10 to 25 mg/kg, ip administered for 12 days starting from day 7 post tumor implantation by flow cytometry analysis; format: functional, organism-based; settings: dose 10-25 mg/kg, time 12.0 day
[23] = organism: Homo sapiens; test: Internalization of PD-L1 in cytoplasm of human RKO cells transfected with DsRed and human calreticulin assessed as colocalization of PD-L1 with endoplasmic reticulum-resident calreticulin at 1 micromol/L incubated for 12 hrs by fluorescence microscopy; format: functional, cell-based; settings: dose 1.0 µmol/L
[24] = system: LLC-hPD-L1; test: Antitumor activity against humanized mouse LLC-hPD-L1 cells implanted in hPD-1 knockin C57BL/6 mouse assessed as macrophage polarization into M1 phenotype at 25 mg/kg, ip administered for 12 days starting from day 7 post tumor implantation by flow cytometry analysis; format: functional, organism-based; settings: time 12.0 day
[25] = Toxicity in ICR mouse assessed as reduction in heart weight at 500 to 5000 mg/kg, po administered via gavage for 2 weeks; format: organism-based; settings: in vivo, 336 h, dose 500-5000 mg/kg
[26] = Antitumor activity against humanized mouse LLC-hPD-L1 cells implanted in hPD-1 knockin C57BL/6 mouse assessed as tumor growth inhibition at 10 mg/kg, ip administered for 12 days starting from day 7 post tumor implantation and measured every 2 days relative to control; format: functional; settings: LLC-hPD-L1, 288 h, time 12 day, read-out: TGI
[27] = target: Programmed cell death protein 1/Programmed cell death 1 ligand 1 (Homo sapiens) (UniProt Q15116+Q9NZQ7); test: Inhibition of PD-1/PD-L1 interaction in human NCI-H358 cells harboring high level PD-L1 expression assessed as increase in transcriptional-mediated bioluminescent signal preincubated with compound followed by washout and further cultured with Jurkat cells transfected with NFAT luciferase by bio-glo reagent based assay; format: cell-based; settings: dose 50-200 nM
[28] = system: MC38-hPD-L1; test: Antitumor activity against humanized mouse MC38-hPD-L1 cells implanted in hPD-1 knockin C57BL/6 mouse assessed as increase in M1 macrophages at 10 to 25 mg/kg, ip administered for 12 days starting from day 7 post tumor implantation by flow cytometry analysis; format: functional, organism-based; settings: dose 10-25 mg/kg, time 12.0 day

With `COc1cc2c(cc1CN[C@@H](CO)C(=O)O)C(=O)N(c1cccc(-c3ccccc3)c1C)C2=O` the AUC(0-inf) [1] was 3570 ng·h/mL, the Activity [2] was “Non-Toxic” and the Activity [3] was “Active”. For the same molecule, the Activity [4] was “Non-Toxic”, the Activity [5] was “Active” and the Activity [6] was “Non-Toxic”. The Activity [7] was “Active”, the Activity [8] was “Non-Toxic” and the Activity [9] was “Active”. The Activity [10] was “inactive”, the Activity [11] was “Active” and the Activity [12] was “Active”. The Activity [13] was “Dose-Dependent Effect”, the Activity [14] was “Active” and the inhibition in vivo at 10 mg/kg [15] was 65.9%. For the same molecule, the Activity [16] was “Active”, the inhibition in vivo at 25 mg/kg [17] was 88.8% and the Activity [18] was “Dose-Dependent Effect”. The Activity [19] was “inactive”, the Activity [20] was “Active” and the Activity [21] was “Active”. For the same molecule, the Activity [22] was “Active”, the Activity [23] was “Active” and the Activity [24] was “Active”. The Activity [25] was “Non-Toxic”, the inhibition in vivo at 10 mg/kg [26] was 57.2% and the inhibition [27] was “Dose-Dependent Effect”. The Activity [28] was “Active”.
